Groups on a side chain read outwards from the residue. No end group written: not given here. Some results are limits rather than exact numbers.

Data set [1] addresses T1, insulin-degrading enzyme (IDE) (Homo sapiens, UniProt P14735).
T1 construct: purchased R&D Systems
T1 sequence (P14735 1-1019): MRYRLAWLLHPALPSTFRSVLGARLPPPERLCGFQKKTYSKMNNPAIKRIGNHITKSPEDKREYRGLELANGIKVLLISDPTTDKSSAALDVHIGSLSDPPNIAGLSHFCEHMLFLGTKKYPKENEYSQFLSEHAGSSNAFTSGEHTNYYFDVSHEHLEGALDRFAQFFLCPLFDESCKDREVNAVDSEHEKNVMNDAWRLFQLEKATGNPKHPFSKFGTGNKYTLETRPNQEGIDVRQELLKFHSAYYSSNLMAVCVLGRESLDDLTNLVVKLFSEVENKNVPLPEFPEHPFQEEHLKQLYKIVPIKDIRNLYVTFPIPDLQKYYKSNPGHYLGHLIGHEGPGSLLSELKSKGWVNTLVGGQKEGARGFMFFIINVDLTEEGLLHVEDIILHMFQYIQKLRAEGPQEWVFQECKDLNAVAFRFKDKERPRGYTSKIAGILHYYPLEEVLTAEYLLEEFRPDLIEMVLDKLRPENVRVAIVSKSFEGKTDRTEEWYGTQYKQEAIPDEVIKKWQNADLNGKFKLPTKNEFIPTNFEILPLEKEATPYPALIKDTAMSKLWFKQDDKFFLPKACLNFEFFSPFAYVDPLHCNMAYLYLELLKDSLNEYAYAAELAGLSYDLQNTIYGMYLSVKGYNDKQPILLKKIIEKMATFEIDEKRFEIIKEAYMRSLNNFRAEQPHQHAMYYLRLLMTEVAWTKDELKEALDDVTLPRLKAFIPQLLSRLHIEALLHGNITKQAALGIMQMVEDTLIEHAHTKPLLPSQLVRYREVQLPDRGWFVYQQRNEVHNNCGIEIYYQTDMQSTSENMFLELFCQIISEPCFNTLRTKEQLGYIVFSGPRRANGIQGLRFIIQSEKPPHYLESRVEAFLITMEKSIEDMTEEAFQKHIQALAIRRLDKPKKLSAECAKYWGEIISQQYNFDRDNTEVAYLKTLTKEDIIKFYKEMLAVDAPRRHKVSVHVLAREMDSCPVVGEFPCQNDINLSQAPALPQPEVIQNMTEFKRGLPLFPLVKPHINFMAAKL
Kind of data set: In vitro degradation by insulin-degrading enzyme, MALDI-TOF time course. Type of data set: in vitro ADME.
Procedure: Reactions were performed in 50 mM Tris, 0.05% Brij-35, pH 9 (Neprilysin), or 50 mM Tris, 20 mM NaCl, pH 7.5 (IDE) and incubated at 37° C.

Data set [2] has as its system male Sprague Dawley rats. As to the kind of experiment: Acute cardiovascular and renal actions of i.v. infusion in anesthetized rats. Type of data set: in vivo. The settings on record: rat. The text has this:
The protocol is outlined in FIG. 9A.
Rats were then subjected to vessel and bladder cannulation for peptide infusion, BP measurement, blood sampling and urine collection. A polyethylene (PE)-5G tube catheter was placed into the jugular vein for inulin, peptide intravenous infusion. The carotid artery was cannulated with a PE-50 tube catheter for BP measurement (Sonometrics, London, Ontario, Canada) and blood sampling. The bladder was accessed and cannulated with a PE-50 tube catheter for passive urine collection. After completion of the above procedural set up, a 45 min equilibration period was performed that included continuous IV inulin and saline infusion. After the 45 min equilibration period, baseline (Time==Q min) parameters were recorded and one blood sampling (0.7 ml) was performed. The inulin and saline infusion was replaced by a continuous intravenously (i.v.) infusion of equimolar ANP-Ser19/ST or ANP-Ser25/ST for 60 min. The infusion rate was weight adjusted and equals weight*0.7/6000 ml/min. After 60 min infusion (Time=60 min), another blood sampling (0.7 ml) was conducted. […] Urine was collected at the end of the infusion (Time=60 min) and the study (Time=90 min). Urinary sodium was measured with pHOx Ultra (Nova Biomedical, Waltham, Mass.). Urine flow (UV) and urinary sodium excretion (UNaV) were calculated as urine volume or sodium clearance per min, Inulin concentrations were measured with enthrone method and inulin clearance was used for GFR quantification. Urinary cGMP and ANP excretion rate was calculated based on raw values obtained in the urine and UV.

Data set [3] addresses T2, VIP/PACAP receptor VPAC1 (UniProt P32241 31-457).
T2 sequence (looked up): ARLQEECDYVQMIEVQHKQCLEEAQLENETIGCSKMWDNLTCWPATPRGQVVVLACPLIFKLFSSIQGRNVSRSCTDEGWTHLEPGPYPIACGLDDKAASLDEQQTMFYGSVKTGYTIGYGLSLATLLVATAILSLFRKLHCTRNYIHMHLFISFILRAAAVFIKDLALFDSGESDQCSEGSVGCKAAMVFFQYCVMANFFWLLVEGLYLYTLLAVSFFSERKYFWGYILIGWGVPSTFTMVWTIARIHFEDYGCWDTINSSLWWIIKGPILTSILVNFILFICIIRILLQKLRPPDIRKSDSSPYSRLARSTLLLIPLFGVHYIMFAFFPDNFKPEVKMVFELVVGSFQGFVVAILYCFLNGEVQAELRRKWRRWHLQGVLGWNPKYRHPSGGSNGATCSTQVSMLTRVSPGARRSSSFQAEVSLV
Kind of data set: cell-based or functional assay.

For data set [4], the target named is T3, VIP/PACAP receptor VPAC2 (UniProt P41587 24-438).
T3 sequence (looked up): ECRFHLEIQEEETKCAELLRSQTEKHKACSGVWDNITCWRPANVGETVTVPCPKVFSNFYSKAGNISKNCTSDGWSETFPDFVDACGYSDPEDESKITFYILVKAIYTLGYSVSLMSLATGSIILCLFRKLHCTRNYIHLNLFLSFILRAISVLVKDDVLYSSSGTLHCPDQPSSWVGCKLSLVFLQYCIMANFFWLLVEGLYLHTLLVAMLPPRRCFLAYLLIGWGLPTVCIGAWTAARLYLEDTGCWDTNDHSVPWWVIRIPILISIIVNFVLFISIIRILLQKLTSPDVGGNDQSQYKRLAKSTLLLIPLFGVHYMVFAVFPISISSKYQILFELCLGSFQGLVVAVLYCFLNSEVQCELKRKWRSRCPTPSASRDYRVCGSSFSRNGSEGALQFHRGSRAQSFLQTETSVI
Kind of data set: cell-based or functional assay.

Setting [5] is: 600 pmol/kg/min i.v., 60 minutes infusion.

Consider `CC[C@H](C)[C@@H]1NC(=O)[C@H](CCCNC(=N)N)NC(=O)[C@H](CC(=O)O)NC(=O)[C@H](CCSC)NC(=O)[C@H](CCCNC(=N)N)NC(=O)CNC(=O)CNC(=O)[C@H](Cc2ccccc2)NC(=O)[C@@H](NC(=O)[C@H](CO)NC(=O)[C@H](CO)NC(=O)[C@H](CCCNC(=N)N)NC(=O)[C@H](CCCNC(=N)N)NC(=O)[C@H](CC(C)C)NC(=O)[C@@H](N)CO)CSSC[C@@H](C(=O)N[C@@H](CC(N)=O)C(=O)N[C@@H](CO)C(=O)N[C@@H](Cc2ccccc2)C(=O)N[C@@H](CCCNC(=N)N)C(=O)N[C@@H](Cc2ccc(O)cc2)C(=O)O)NC(=O)CNC(=O)[C@H](CC(C)C)NC(=O)CNC(=O)[C@H](CO)NC(=O)[C@H](CCC(N)=O)NC(=O)[C@H](C)NC(=O)CNC1=O` [ANP, Atrial natriuretic factor, reference compound], for which the “time to complete degradation by insulin-degrading enzyme” value in data set [1] was at most 15 min. In addition, the “UV after a clearance period of 30 minutes” value in data set [2] is listed as “normalized”. Moreover, in data set [2] (setting [5]), the “change in mean arterial pressure (MAP) over the infusion period” value is recorded as “decrease” and the “change in plasma cGMP over the infusion period” value was “increase”. In data set [2] (after 60 min infusion), the “MAP in the 30 minutes clearance period” value was “rebounded”.

In the case of HSDAVFT([GalNAc-Gal-NeuAc])DNYTRLRKQMAVKKYLNSILN [VIP with ST O-glycan at Thr7], the “potency, cAMP accumulation (HTRF)” value came out at 74 nM in data set [3] and 244 nM in data set [4].

Regarding HSDAVFT(GalNAc)DNYTRLRKQMAVKKYLNSILN [VIP with one O-glycan (GalNAc/Tn) at residue 7], the “potency, cAMP accumulation (HTRF)” value was 102 nM in data set [3] and 242 nM in data set [4].

These data come from patent US20210171598A1, “PEPTIDE HORMONE WITH ONE OR MORE O-GLYCANS” (priority 2017, published 2021).
